Measurements taken from patent US8748415B2 (priority 2011, dated 2014).

Test system: recombinant NL4-3 virus (Renilla luciferase in nef, Gag P373S)
Test: HIV cell culture assay (luciferase activity in MT-2 cells infected with NLRluc recombinant virus)
Assay type: cell-based
Conditions: NL43, MT-2 cells infected 4-5 days with NLRluc recombinant virus
Summary of the method: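 MT-2 cells in RPMI/10% FBS were infected with recombinant NL4-3 (NLRluc), produced by 293T transfection and titered in MT-2 by luciferase. Serial inhibitor dilutions were present throughout a 4–5 day infection. Antiviral activity was quantified as Renilla luciferase signal via a modified Dual Luciferase read.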

| Compound | EC50 (class symbol) | EC50 (numeric value) |
| --- | --- | --- |
| C=C(C)[C@@H]1CC[C@]2(CNCCCN(C)c3ccccc3)CC[C@]3(C)[C@H](CC[C@@H]4[C@@]5(C)CC=C(c6ccc(C(=O)O)cc6)C(C)(C)[C@@H]5CC[C@]43C)[C@@H]12 [Example 18, 4-((1R,3aS,5aR,5bR,7aR,11aS,11bR,13aR,13bR)-5a,5b,8,8,11a-pentamethyl-3a-((3-(methyl(phenyl)amino)propylamino)methyl)-1-(prop-1-en-2-yl)-2,3,3a,4,5,5a,5b,6,7,7a,8,11,11a,11b,12,13,13a,13b-octadecahydro-1H-cyclopenta[a]chrysen-9-yl)benzoic acid] | < 100 nM | – |
| C=C(C)[C@@H]1CC[C@]2(CNCCC(=O)N(C)CCS(C)(=O)=O)CC[C@]3(C)[C@H](CC[C@@H]4[C@@]5(C)CC=C(c6ccc(C(=O)O)cc6)C(C)(C)[C@@H]5CC[C@]43C)[C@@H]12 [Example 125, 4-((1R,3aS,5aR,5bR,7aR,11aS,11bR,13aR,13bR)-5a,5b,8,8,11a-pentamethyl-3a-((3-(methyl(2-(methylsulfonyl)ethyl)amino)-3-oxopropylamino)methyl)-1-(prop-1-en-2-yl)-2,3,3a,4,5,5a,5b,6,7,7a,8,11,11a,11b,12,13,13a,13b-octadecahydro-1H-cyclopenta[a]chrysen-9-yl)benzoic acid] | < 100 nM | – |
| C=C(C)[C@@H]1CC[C@]2(CNCCC(=O)N3CCCC3)CC[C@]3(C)[C@H](CC[C@@H]4[C@@]5(C)CC=C(c6ccc(C(=O)O)cc6F)C(C)(C)[C@@H]5CC[C@]43C)[C@@H]12 [Example 89, 3-fluoro-4-((1R,3aS,5aR,5bR,7aR,11aS,11bR,13aR,13bR)-5a,5b,8,8,11a-pentamethyl-3a-((3-oxo-3-(pyrrolidin-1-yl)propylamino)methyl)-1-(prop-1-en-2-yl)-2,3,3a,4,5,5a,5b,6,7,7a,8,11,11a,11b,12,13,13a,13b-octadecahydro-1H-cyclopenta[a]chrysen-9-yl)benzoic acid] | < 100 nM | – |
| C=C(C)[C@@H]1CC[C@]2(CNCCN3CCCC3=O)CC[C@]3(C)[C@H](CC[C@@H]4[C@@]5(C)CC=C(c6ccc(C(=O)O)cc6)C(C)(C)[C@@H]5CC[C@]43C)[C@@H]12 [Example 34, 4-((1R,3aS,5aR,5bR,7aR,11aS,11bR,13aR,13bR)-5a,5b,8,8,11a-pentamethyl-3a-((2-(2-oxopyrrolidin-1-yl)ethylamino)methyl)-1-(prop-1-en-2-yl)-2,3,3a,4,5,5a,5b,6,7,7a,8,11,11a,11b,12,13,13a,13b-octadecahydro-1H-cyclopenta[a]chrysen-9-yl)benzoic acid] | < 100 nM | – |
| C=C(C)[C@@H]1CC[C@]2(CNCCCN)CC[C@]3(C)[C@H](CC[C@@H]4[C@@]5(C)CC=C(c6ccc(C(=O)O)cc6)C(C)(C)[C@@H]5CC[C@]43C)[C@@H]12 [Example 67, 4-((1R,3aS,5aR,5bR,7aR,11aS,11bR,13aR,13bR)-3a-((3-aminopropylamino)methyl)-5a,5b,8,8,11a-pentamethyl-1-(prop-1-en-2-yl)-2,3,3a,4,5,5a,5b,6,7,7a,8,11,11a,11b,12,13,13a,13b-octadecahydro-1H-cyclopenta[a]chrysen-9-yl)benzoic acid] | < 100 nM | – |
| C=C(C)[C@@H]1CC[C@]2(CN(CCCN3CCS(=O)(=O)CC3)C(=O)CCC(=O)O)CC[C@]3(C)[C@H](CC[C@@H]4[C@@]5(C)CC=C(c6ccc(C(=O)O)cc6)C(C)(C)[C@@H]5CC[C@]43C)[C@@H]12 [Example 16, 4-((1R,3aS,5aR,5bR,7aR,11aS,11bR,13aR,13bR)-5a,5b,8,8,11a-pentamethyl-1-(prop-1-en-2-yl)-3a-((3-(1-dioxo-thiomorpholino)propylamino)methyl)-2,3,3a,4,5,5a,5b,6,7,7a,8,11,11a,11b,12,13,13a,13b-octadecahydro-1H-cyclopenta[a]chrysen-9-yl)benzoic acid] | < 100 nM | – |
| C=C(C)[C@@H]1CC[C@]2(CNCCN(C)C)CC[C@]3(C)[C@H](CC[C@@H]4[C@@]5(C)CC=C(c6ccc(C(=O)O)cc6)C(C)(C)[C@@H]5CC[C@]43C)[C@@H]12 [Example 1, 4-((1R,3aS,5aR,5bR,7aR,11aS,11bR,13aR,13bR)-3a-((2-(dimethylamino)ethylamino)methyl)-5a,5b,8,8,11a-pentamethyl-1-(prop-1-en-2-yl)-2,3,3a,4,5,5a,5b,6,7,7a,8,11,11a,11b,12,13,13a,13b-octadecahydro-1H-cyclopenta[a]chrysen-9-yl)benzoic acid] | < 100 nM | – |
| C=C(C)[C@@H]1CC[C@]2(CNCCC(=O)N3CCC(F)(F)C3)CC[C@]3(C)[C@H](CC[C@@H]4[C@@]5(C)CC=C(c6ccc(C(=O)O)cc6)C(C)(C)[C@@H]5CC[C@]43C)[C@@H]12 [Example 103, 4-((1R,3aS,5aR,5bR,7aR,11aS,11bR,13aR,13bR)-3a-((3-(3,3-difluoropyrrolidin-1-yl)-3-oxopropylamino)methyl)-5a,5b,8,8,11a-pentamethyl-1-(prop-1-en-2-yl)-2,3,3a,4,5,5a,5b,6,7,7a,8,11,11a,11b,12,13,13a,13b-octadecahydro-1H-cyclopenta[a]chrysen-9-yl)benzoic acid] | < 100 nM | – |
| C=C(C)[C@@H]1CC[C@]2(CNCCCN3CCS(=O)(=O)CC3)CC[C@]3(C)[C@H](CC[C@@H]4[C@@]5(C)CC=C(c6ccc(C(=O)O)c(F)c6)C(C)(C)[C@@H]5CC[C@]43C)[C@@H]12 [Example 93, 4-((1R,3aS,5aR,5bR,7aR,11aS,11bR,13aR,13bR)-3a-(((3-(1,1-dioxido-4-thiomorpholinyl)propyl)amino)methyl)-1-isopropenyl-5a,5b,8,8,11a-pentamethyl-2,3,3a,4,5,5a,5b,6,7,7a,8,11,11a,11b,12,13,13a,13b-octadecahydro-1H-cyclopenta[a]chrysen-9-yl)-2-fluorobenzoic acid] | < 100 nM | – |
| C=C(C)[C@@H]1CC[C@]2(CNC(=O)CCN3CCS(=O)(=O)CC3)CC[C@]3(C)[C@H](CC[C@@H]4[C@@]5(C)CC=C(c6ccc(C(=O)O)cc6)C(C)(C)[C@@H]5CC[C@]43C)[C@@H]12 [Example 146, 4-((1R,3aS,5aR,5bR,7aR,11aS,11bR,13aR,13bR)-3a-(((3-(1,1-dioxido-4-thiomorpholinyl)propanoyl)amino)methyl)-1-isopropenyl-5a,5b,8,8,11a-pentamethyl-2,3,3a,4,5,5a,5b,6,7,7a,8,11,11a,11b,12,13,13a,13b-octadecahydro-1H-cyclopenta[a]chrysen-9-yl)benzoic acid] | < 100 nM | – |
| C=C(C)[C@@H]1CC[C@]2(CNCCCBr)CC[C@]3(C)[C@H](CC[C@@H]4[C@@]5(C)CC=C(c6ccc(C(=O)O)cc6)C(C)(C)[C@@H]5CC[C@]43C)[C@@H]12 [Example 65, 4-((1R,3aS,5aR,5bR,7aR,11aS,11bR,13aR,13bR)-3a-((3-bromopropylamino)methyl)-5a,5b,8,8,11a-pentamethyl-1-(prop-1-en-2-yl)-2,3,3a,4,5,5a,5b,6,7,7a,8,11,11a,11b,12,13,13a,13b-octadecahydro-1H-cyclopenta[a]chrysen-9-yl)benzoic acid] | – | 1 nM |
| C=C(C)[C@@H]1CC[C@]2(CNCCC(=O)N3CCCCC3)CC[C@]3(C)[C@H](CC[C@@H]4[C@@]5(C)CC=C(c6ccc(C(=O)O)cc6)C(C)(C)[C@@H]5CC[C@]43C)[C@@H]12 [Example 96, 4-((1R,3aS,5aR,5bR,7aR,11aS,11bR,13aR,13bR)-5a,5b,8,8,11a-pentamethyl-3a-((3-oxo-3-(piperidin-1-yl)propylamino)methyl)-1-(prop-1-en-2-yl)-2,3,3a,4,5,5a,5b,6,7,7a,8,11,11a,11b,12,13,13a,13b-octadecahydro-1H-cyclopenta[a]chrysen-9-yl)benzoic acid] | < 100 nM | – |
| C=C(C)[C@@H]1CC[C@]2(CNC(=O)C3CC(=O)NC(=O)C3)CC[C@]3(C)[C@H](CC[C@@H]4[C@@]5(C)CC=C(c6ccc(C(=O)O)cc6)C(C)(C)[C@@H]5CC[C@]43C)[C@@H]12 [Example 134, 4-((1R,3aS,5aR,5bR,7aR,11aS,11bR,13aR,13bR)-3a-((2,6-dioxopiperidine-4-carboxamido)methyl)-5a,5b,8,8,11a-pentamethyl-1-(prop-1-en-2-yl)-2,3,3a,4,5,5a,5b,6,7,7a,8,11,11a,11b,12,13,13a,13b-octadecahydro-1H-cyclopenta[a]chrysen-9-yl)benzoic acid] | < 100 nM | – |
| C=C(C)[C@@H]1CC[C@]2(CNCCC(=O)N3CCS(=O)(=O)CC3)CC[C@]3(C)[C@H](CC[C@@H]4[C@@]5(C)CC=C(c6ccc(C(=O)O)cc6)C(C)(C)[C@@H]5CC[C@]43C)[C@@H]12 [Example 118, 4-((1R,3aS,5aR,5bR,7aR,11aS,11bR,13aR,13bR)-3a-(((3-(1,1-dioxido-4-thiomorpholinyl)-3-oxopropyl)amino)methyl)-1-isopropenyl-5a,5b,8,8,11a-pentamethyl-2,3,3a,4,5,5a,5b,6,7,7a,8,11,11a,11b,12,13,13a,13b-octadecahydro-1H-cyclopenta[a]chrysen-9-yl)benzoic acid] | < 100 nM | – |
| C=C(C)[C@@H]1CC[C@]2(CNCCCC(=O)O)CC[C@]3(C)[C@H](CC[C@@H]4[C@@]5(C)CC=C(c6ccc(C(=O)O)cc6)C(C)(C)[C@@H]5CC[C@]43C)[C@@H]12 [Example 28, 4-((1R,3aS,5aR,5bR,7aR,11aS,11bR,13aR,13bR)-3a-((3-carboxypropylamino)methyl)-5a,5b,8,8,11a-pentamethyl-1-(prop-1-en-2-yl)-2,3,3a,4,5,5a,5b,6,7,7a,8,11,11a,11b,12,13,13a,13b-octadecahydro-1H-cyclopenta[a]chrysen-9-yl)benzoic acid] | – | 2 nM |
